The format of series [1] is physicochemical. Here is the method: (§1) 30.13 mg of 3 was added to 1 mL USP-purified water. The sample was rotated for 2 h and then centrifuged for 5 min. After centrifuging, solid was visible in the bottom of the tube. A 125 μL aliquot of the solution was then diluted to 25 mL. The sample was analyzed by UV/Vis spectroscopy at 436 nm, and the absorbance was compared to a standard curve compiled from four standards of known concentration. The concentration of the original supernatant was calculated to be 2.85 mg/mL and the absorptivity was 36.94 AU mL/cm mg. Slight error may have been introduced by the small size of the original aliquot.
as §1, with “Next, 30.80” for “30.13”, “8” for “3”, “411” for “436”, “29.27” for “2.85”, “2.90” for “36.94”

Series [2] concerns superoxide anion generation from phorbol-ester (PMA)-stimulated PMNs. Briefly: Direct superoxide anion scavenging by EPR spectroscopy (DEPMPO spin-trap) in isolated human neutrophil assay. In kind it is cell-based. As to conditions: 40% EtOH, 0.1 mM; EtOH vehicle background 5%; listed as lutein diphosphate, sodium salt. Here is the method:
Human polymorphonuclear leukocytes (PMNs) were isolated from freshly sampled venous blood of a single volunteer by Percoll density gradient centrifugation as described previously. Briefly, each 10 mL of whole blood was mixed with 0.8 mL of 0.1 M EDTA and 25 mL saline. The diluted blood was then layered over 9 mL Percoll at a specific density of 1.080 g/mL. After centrifugation at 400 g for 20 min at 20° C., the plasma, mononuclear cell, and Percoll layers were removed. Erythrocytes were subsequently lysed by addition of 18 mL ice-cold water for 30 s, followed by 2 mL of 10× PIPES buffer (25 mM PIPES, 110 mM NaCl, and 5 mM KCl, titrated to pH 7.4 with NaOH). […] Afterward, PMNs were counted by light microscopy on a hemocytometer. […]
All EPR measurements were performed using a Bruker ER 300 EPR spectrometer operating at X-band with a TM110 cavity as previously described. The microwave frequency was measured with a Model 575 microwave counter (EIP Microwave, Inc., San Jose, Calif.). […]
Instrument settings used in the spin-trapping experiments were as follows: modulation amplitude, 0.32 G; time constant, 0.16 s; scan time, 60 s; modulation frequency, 100 kHz; microwave power, 20 mW; and microwave frequency, 9.76 GHz. The samples were placed in a quartz EPR .at cell, and spectra were recorded. The component signals in the spectra were identified and quantified as reported previously.

Where only a bound is given, the exact number is not on record here.

Take “3,3′-Diphosphoryloxy-β,ε-carotene sodium salt [Compound 8]”: the “Increase in aqueous dispersibility versus the disuccinate sodium salt” value in series [1] is recorded as more than 10 fold. The “Mean (% inhibition) of superoxide anion signal” value in series [2] is recorded as “(mean % inhibition = 18%) was increased above background scavenging (5%)”.

(Values after patent publication US20060270589A1, “Carotenoids, carotenoid analogs, or carotenoid derivatives for the treatment of visual disabilities” (priority 2005, published 2006).)
